Source: publication PMC10338470, “Phase 1 study of GSK3368715, a type I PRMT inhibitor, in patients with advanced solid tumors” (British Journal of Cancer, 2023)
Several values for one entry are separate records, joined by “and”; a condition that tells them apart may be missing. Equal values may be shown once. Marks after values point to notes of the source that are not given here.

Key:
lymphomas = test system: lymphomas; parameters: method as in PMID 31257072; conditions: lymphomas ref [6]; cited from earlier work
[1] = Phase 1 safety: adverse events, dose-limiting toxicities, thromboembolic events (NCI-CTCAE v5.0); assay type: in vivo, human
Method: The study was approved by the ethics committee at every participating institution and was conducted according to the recommendations of Good Clinical Practice and the Declaration of Helsinki. All patients provided written informed consent to participate in the study.
Part 1 of this study included a dose-escalation cohort to assess the incidence of dose-limiting toxicities (DLTs) and adverse events, and a PK/PD cohort to characterize the PK/PD profile of GSK3368715 (Fig. 1). A food-effect cohort and a second study phase (part 2) to assess the preliminary clinical activity of GSK3368715 were also planned.
For each dosing group in the dose-escalation cohort, GSK3368715 was administered on day 1, no treatment was administered on days 2 and 3 (to characterize single-dose PK), and daily dosing continued thereafter until disease progression, unacceptable toxicity, or withdrawal of consent. Study treatment was dosed at approximately the same time of day (±4 h), with no food for 1 h before and 2 h after each dose.
The study resumed under a protocol amendment with the PK/PD cohort starting at a daily dose of 100 mg, and dose escalation was limited to 50-mg increments. The incidence and frequency of TEEs were added to the DLT criteria (grade 2 TEE requiring systemic anticoagulation or ≥grade 3 TEE) with extended monitoring to 8 weeks or until study discontinuation, whichever occurred first. Further, eligibility criteria were modified to exclude patients at high risk of thrombosis (ie, Khorana score ≥3 or prior medical history of TEE). Patients with a Khorana score of 2 were considered for prophylactic anticoagulation if deemed appropriate by the investigator. Khorana score is a risk assessment model based on clinical and laboratory parameters to classify the risk for chemotherapy-associated venous thromboembolism (Supplemental Table 2).
Adverse events were coded using the standard MedDRA groupings and graded according to NCI-CTCAE version 5.0. Clinical chemistry, urinalysis, and coagulation tests were performed predose on days 1, 8, 15, 22, and weekly thereafter. Tumor imaging occurred every 8 weeks until week 33, and then every 16 weeks thereafter.
The Neuenschwander Continual Reassessment Method dose-escalation design has been previously described. […] Additionally, following the protocol amendment, dose escalations were limited to 50-mg increments.
Adverse events and DLTs were summarized descriptively by dose cohort. Pharmacokinetic parameters of GSK3368715 and its metabolites (GSK3963583 and GSK3983164) were estimated in the PK/PD population (all participants for whom a PK sample was obtained) using a noncompartmental analysis model (WinNonlin version 8.1) and summarized descriptively. Best overall response as per RECIST 1.1 was summarized descriptively by dose cohort. Levels of tumor cell and plasma pharmacodynamic biomarkers were also summarized descriptively.

CCOCC1(COCC)CCC(c2[nH]ncc2CN(C)CCNC)CC1 [GSK3368715]
Cell lines with cytotoxic responses (lymphomas): 56%
Grade 3 TEE events [1]: 8
AE: Anemia ([1]; 50 mg (n = 3)): 1 (33) n (%)
AE: Diarrhea ([1]; 50 mg (n = 3)): 1 (33) n (%)
AE: Dyspnea ([1]; 50 mg (n = 3)): 1 (33) n (%)
AE: Fatigue ([1]; 50 mg (n = 3)): 1 (33) n (%)
AE: Nausea ([1]; 50 mg (n = 3)): 2 (67) n (%)
AE: Neutrophil count decreased ([1]; 50 mg (n = 3)): 0 n (%)
AE: Pulmonary embolism ([1]; 50 mg (n = 3)): 0 n (%)
AE: Pyrexia ([1]; 50 mg (n = 3)): 1 (33) n (%)
AE: Vomiting ([1]; 50 mg (n = 3)): 2 (67) n (%)
Any AE (all AEs and all grades) ([1]; 50 mg (n = 3)): 3 (100) n (%)
GSK3368715-related Grade 3 AE: Aortic thrombosis ([1]; 50 mg (n = 3)): 0 n (%)
GSK3368715-related Grade 3 AE: Atrial fibrillation ([1]; 50 mg (n = 3)): 0 n (%)
GSK3368715-related Grade 3 AE: Deep vein thrombosis ([1]; 50 mg (n = 3)): 0 n (%)
GSK3368715-related Grade 3 AE: Neutrophil count decreased ([1]; 50 mg (n = 3)): 0 n (%)
GSK3368715-related Grade 4 AE: Lymphocyte count decreased ([1]; 50 mg (n = 3)): 0 n (%)
GSK3368715-related Grade 4 AE: Platelet count decreased ([1]; 50 mg (n = 3)): 0 n (%)
Dose-limiting toxicities (DLTs) ([1]; 50 mg dose group): no DLTs
Thromboembolic event grade: Portal vein thrombosis ([1]; 50 mg, patient with cholangiocarcinoma): 2
AE: Anemia ([1]; 100 mg (n = 16)): 6 (38)^b n (%)
AE: Diarrhea ([1]; 100 mg (n = 16)): 5 (31)^b n (%)
AE: Dyspnea ([1]; 100 mg (n = 16)): 2 (13) n (%)
AE: Fatigue ([1]; 100 mg (n = 16)): 6 (38) n (%)
AE: Nausea ([1]; 100 mg (n = 16)): 3 (19) n (%)
AE: Neutrophil count decreased ([1]; 100 mg (n = 16)): 1 (6)^d,e n (%)
AE: Pulmonary embolism ([1]; 100 mg (n = 16)): 2 (13)^c n (%)
AE: Pyrexia ([1]; 100 mg (n = 16)): 5 (31) n (%)
AE: Vomiting ([1]; 100 mg (n = 16)): 2 (13) n (%)
Any AE (all AEs and all grades) ([1]; 100 mg (n = 16)): 15 (94) n (%)
GSK3368715-related Grade 3 AE: Aortic thrombosis ([1]; 100 mg (n = 16)): 0 n (%)
GSK3368715-related Grade 3 AE: Atrial fibrillation ([1]; 100 mg (n = 16)): 0 n (%)
GSK3368715-related Grade 3 AE: Deep vein thrombosis ([1]; 100 mg (n = 16)): 0 n (%)
GSK3368715-related Grade 3 AE: Neutrophil count decreased ([1]; 100 mg (n = 16)): 1 (6)^e n (%)
GSK3368715-related Grade 4 AE: Lymphocyte count decreased ([1]; 100 mg (n = 16)): 0 n (%)
GSK3368715-related Grade 4 AE: Platelet count decreased ([1]; 100 mg (n = 16)): 0 n (%)
Thromboembolic event grade: Pulmonary embolism ([1]; 100 mg, patient with head and neck squamous cell carcinoma, study drug withdrawn): 2
Thromboembolic event grade: Pulmonary embolism ([1]; 100 mg, patient with pancreas adenocarcinoma): 3
Grade 5 pulmonary embolism, number ([1]; 200 mg): 1
AE: Anemia ([1]; 200 mg (n = 12)): 2 (17) n (%)
AE: Diarrhea ([1]; 200 mg (n = 12)): 1 (8) n (%)
AE: Dyspnea ([1]; 200 mg (n = 12)): 1 (8) n (%)
AE: Fatigue ([1]; 200 mg (n = 12)): 1 (8) n (%)
AE: Nausea ([1]; 200 mg (n = 12)): 4 (33) n (%)
AE: Neutrophil count decreased ([1]; 200 mg (n = 12)): 3 (25) n (%)
AE: Pyrexia ([1]; 200 mg (n = 12)): 0 n (%)
AE: Vomiting ([1]; 200 mg (n = 12)): 3 (25) n (%)
Any AE (all AEs and all grades) ([1]; 200 mg (n = 12)): 12 (100) n (%)
GSK3368715-related Grade 3 AE: Aortic thrombosis ([1]; 200 mg (n = 12)): 1 (8)^b,g n (%)
GSK3368715-related Grade 3 AE: Atrial fibrillation ([1]; 200 mg (n = 12)): 1 (8)^g n (%)
GSK3368715-related Grade 3 AE: Deep vein thrombosis ([1]; 200 mg (n = 12)): 1 (8) n (%)
GSK3368715-related Grade 3 AE: Neutrophil count decreased ([1]; 200 mg (n = 12)): 0 n (%)
GSK3368715-related Grade 4 AE: Lymphocyte count decreased ([1]; 200 mg (n = 12)): 1 (8)^b n (%)
GSK3368715-related Grade 4 AE: Platelet count decreased ([1]; 200 mg (n = 12)): 1 (8)^b,g n (%)
Thromboembolic event grade: Pulmonary embolism ([1]; 200 mg, patient with epithelioid hemangioendothelioma): 3
Thromboembolic event grade: Pulmonary embolism ([1]; 200 mg, patient with mucoepidermoid carcinoma of parotid): 3
Thromboembolic event grade: Pulmonary embolism ([1]; 200 mg, patient with pancreas adenocarcinoma mucinous, fatal): 5
Participants with grade 2 portal vein thrombosis ([1]; 50-mg dose group): 1
Dose-limiting toxicities (DLTs) ([1]; 100-mg dose group): no DLTs
Patients with grade 3 decrease in neutrophil count leading to dose reduction ([1]; 100-mg dose group): 1 patient
Pulmonary embolisms reported (1 grade 2, 1 grade 3) ([1]; 100-mg dose group): 2
Grade 3 aortic thrombosis events ([1]; 200-mg dose group): 1
Grade 3 deep vein thrombosis events ([1]; 200-mg dose group): 1
Grade 3 portal vein thrombosis events ([1]; 200-mg dose group): 2
Grade 3 pulmonary embolism events ([1]; 200-mg dose group): 4
Patients with grade 3 aortic thrombosis ([1]; 200-mg dose group): 1 patient
Patients with grade 3 atrial fibrillation ([1]; 200-mg dose group): 1 patient
Patients with grade 3 deep vein thrombosis ([1]; 200-mg dose group): 1 patient
Patients with grade 4 decrease in lymphocyte count ([1]; 200-mg dose group): 1 patient
Patients with grade 4 decrease in platelet count ([1]; 200-mg dose group): 2 patients
Patients with dose-limiting toxicities (DLTs) ([1]; 200-mg dose group (n = 12), aortic thrombosis, atrial fibrillation, decrease in platelet count): 25%
Fatal (grade 5) SAEs ([1]; 200-mg dose group, PE and intracranial hemorrhage): 2
AE: Anemia ([1]; Total (N = 31)): 9 [29%] n (%) and 9 (29) n (%)
AE: Diarrhea ([1]; Total (N = 31)): 7 (23) n (%)
AE: Dyspnea ([1]; Total (N = 31)): 4 (13) n (%)
AE: Fatigue ([1]; Total (N = 31)): 8 [26%] n (%) and 8 (26) n (%)
AE: Nausea ([1]; Total (N = 31)): 9 [29%] n (%) and 9 (29) n (%)
AE: Neutrophil count decreased ([1]; Total (N = 31)): 4 (13) n (%)
AE: Pyrexia ([1]; Total (N = 31)): 6 (19) n (%)
AE: Vomiting ([1]; Total (N = 31)): 7 (23) n (%)
Any AE (all AEs and all grades) ([1]; Total (N = 31)): 30 [97%] n (%) and 30 (97) n (%)
GSK3368715-related AEs by maximum grade: Grade 3 ([1]; Total (N = 31)): 4 (13) n (%)
GSK3368715-related AEs by maximum grade: Grade 4 ([1]; Total (N = 31)): 2 (6) n (%)
Number of grade 3 TEEs ([1]; across dose groups (abstract)): 8
Patients experiencing thromboembolic events (TEEs) ([1]; across dose groups, N = 31, 95% confidence interval 14–48%): 29%
Number of thromboembolic events (TEEs) ([1]; across dose groups, in 9 participants): 12
Changes from baseline for clinical chemistry, hematology, urinalysis, or echocardiograms (ECGs) ([1]; all dose groups): No clinically significant trends
Patients who discontinued due to a DLT ([1]; all dose groups, N = 31): 3
Patients who discontinued due to an AE ([1]; all dose groups, N = 31): 5 patients
Patients with ≥1 grade 3 or grade 4 treatment emergent AEs ([1]; all dose groups, N = 31): 52%
Patients with ≥1 serious AE (SAE) ([1]; all dose groups, N = 31): 39%
